Assay results taken from patent publication US12703729B2, “GIP agonist compounds and methods” (Zealand Pharma A/S, priority 2014, dated 2026).
Starred links: 1 amine or outer side, 2 acyl side, 3 side chain; linkers in the order of their positions; H or OH if unused. Non-standard residues stand in square brackets, D forms with d. Residues, ends and D or L forms follow the SMILES beside them. Groups on a side chain read outwards from the residue. *: point of attachment. C20 diacid = O=C(O)CCCCCCCCCCCCCCCCCCC(=O)*; γGlu = O=C(O)[C@H](CCC(=O)[*:2])N[*:1]; AEEA = NCCOCCOCC(=O)O; Aib = CC(C)(N)C(=O)O

Experiments:
in vivo = conditions: male, C57BL/6J, mouse; for bioavailability: Bioavailability s.c.; for half-life: 200 nmol/kg
[1] = target: human GLP-1 receptor (GLP-1R) (Homo sapiens, UniProt P43220); test: Activity assay at human GLP-1 receptor, cAMP induction (AlphaScreen), Example 3
[2] = target: T1, human GIP receptor (GIP R) (Homo sapiens, UniProt P48546); test: Activity assay at human GIP receptor, cAMP induction (AlphaScreen), Example 3
T1 sequence (P48546 22-466): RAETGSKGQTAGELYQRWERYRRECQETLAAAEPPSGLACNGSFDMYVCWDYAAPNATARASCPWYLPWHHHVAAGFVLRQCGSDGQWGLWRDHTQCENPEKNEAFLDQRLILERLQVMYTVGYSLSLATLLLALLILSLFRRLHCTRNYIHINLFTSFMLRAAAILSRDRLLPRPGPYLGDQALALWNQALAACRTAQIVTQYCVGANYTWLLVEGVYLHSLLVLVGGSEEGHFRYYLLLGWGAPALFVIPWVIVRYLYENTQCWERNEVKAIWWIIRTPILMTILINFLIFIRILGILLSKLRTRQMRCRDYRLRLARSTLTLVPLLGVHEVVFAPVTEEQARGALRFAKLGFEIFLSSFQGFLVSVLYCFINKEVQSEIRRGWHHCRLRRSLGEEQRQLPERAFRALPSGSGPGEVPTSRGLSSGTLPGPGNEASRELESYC

human GIP R = target: T2, human GIP R (Homo sapiens, UniProt P48546); test: cell-based
T2 sequence (P48546 22-466): T1 sequence (P48546 22-466)

[3] = iv, Terminal elimination half-life T½ i.v.
[4] = sc, Terminal elimination half-life T½ s.c.

Sequence of human GLP-1 receptor (GLP-1R) (P43220 24-463): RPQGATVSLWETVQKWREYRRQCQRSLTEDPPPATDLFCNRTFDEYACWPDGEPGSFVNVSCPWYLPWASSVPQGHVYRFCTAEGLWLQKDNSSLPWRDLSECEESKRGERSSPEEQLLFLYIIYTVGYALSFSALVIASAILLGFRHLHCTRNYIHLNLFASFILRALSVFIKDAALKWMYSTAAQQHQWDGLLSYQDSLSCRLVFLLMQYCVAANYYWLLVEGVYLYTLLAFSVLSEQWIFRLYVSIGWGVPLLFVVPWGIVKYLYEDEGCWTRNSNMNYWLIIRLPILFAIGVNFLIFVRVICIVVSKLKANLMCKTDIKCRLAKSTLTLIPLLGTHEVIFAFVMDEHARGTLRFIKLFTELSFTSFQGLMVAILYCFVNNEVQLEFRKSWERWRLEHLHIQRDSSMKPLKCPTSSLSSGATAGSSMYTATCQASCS

Row | Compound | bioavailability (in vivo) | half-life (in vivo; [3]) | Tmax (in vivo; sc) | half-life (in vivo; [4]) | bioavailability (in vivo; sc, repeated test) | EC50 [1] | EC50 [2] | EC50 (human GIP R)
1 | CC[C@H](C)[C@H](NC(=O)[C@H](CO)NC(=O)[C@H](Cc1ccc(O)cc1)NC(=O)[C@H](CC(=O)O)NC(=O)[C@H](CO)NC(=O)[C@@H](NC(=O)[C@H](Cc1ccccc1)NC(=O)[C@@H](NC(=O)CNC(=O)[C@H](CCC(=O)O)NC(=O)C(C)(C)NC(=O)[C@@H](N)Cc1ccc(O)cc1)[C@@H](C)O)[C@@H](C)CC)C(=O)N[C@@H](CCC(=O)O)C(=O)N[C@@H](CC(C)C)C(=O)N[C@@H](CC(=O)O)C(=O)N[C@@H](CCCCN)C(=O)N[C@@H](CCCCNC(=O)COCCOCCNC(=O)COCCOCCNC(=O)CC[C@H](NC(=O)CCCCCCCCCCCCCCCCCCC(=O)O)C(=O)O)C(=O)N[C@@H](C)C(=O)N[C@@H](C)C(=O)N[C@@H](CCC(N)=O)C(=O)N[C@@H](CC(=O)O)C(=O)N[C@@H](Cc1ccccc1)C(=O)N[C@H](C(=O)N[C@@H](CC(N)=O)C(=O)N[C@@H](Cc1c[nH]c2ccccc12)C(=O)N[C@@H](CC(C)C)C(=O)N[C@@H](CC(C)C)C(=O)N[C@@H](C)C(=O)N[C@@H](CCC(N)=O)C(=O)NCC(=O)N1CCC[C@H]1C(=O)N[C@@H](CO)C(=O)N[C@@H](CO)C(=O)NCC(=O)N[C@@H](C)C(=O)N1CCC[C@H]1C(=O)N1CCC[C@H]1C(=O)N1CCC[C@H]1C(=O)N[C@@H](CO)C(N)=O)C(C)C [Compound 10] (H-Y[Aib]EGTFISDYSIELDKK([AEEA-AEEA-γGlu-C20 diacid])AAQDFVNWLLAQGPSSGAPPPS-NH2) | 100% | 16.9 h | 4 h | 21.1 h | 77% | > 10000 pM | 8 pM | 7 pM
2 | CC[C@H](C)[C@H](NC(=O)[C@H](CO)NC(=O)[C@H](Cc1ccc(O)cc1)NC(=O)[C@H](CC(=O)O)NC(=O)[C@H](CO)NC(=O)[C@@H](NC(=O)[C@H](Cc1ccccc1)NC(=O)[C@@H](NC(=O)CNC(=O)[C@H](CCC(=O)O)NC(=O)C(C)(C)NC(=O)[C@@H](N)Cc1ccc(O)cc1)[C@@H](C)O)[C@@H](C)CC)C(=O)N[C@@H](CCC(=O)O)C(=O)N[C@@H](CC(C)C)C(=O)N[C@@H](CCC(=O)O)C(=O)N[C@@H](CCCCN)C(=O)N[C@@H](CCCCNC(=O)COCCOCCNC(=O)COCCOCCNC(=O)CC[C@H](NC(=O)CCCCCCCCCCCCCCCCCCC(=O)O)C(=O)O)C(=O)N[C@@H](C)C(=O)N[C@@H](CCC(N)=O)C(=O)N[C@@H](CCCNC(=N)N)C(=O)N[C@@H](C)C(=O)N[C@@H](Cc1ccccc1)C(=O)N[C@H](C(=O)N[C@@H](CCC(=O)O)C(=O)N[C@@H](Cc1c[nH]c2ccccc12)C(=O)N[C@@H](CC(C)C)C(=O)N[C@@H](CC(C)C)C(=O)N[C@@H](C)C(=O)N[C@@H](CCC(N)=O)C(=O)NCC(=O)N1CCC[C@H]1C(=O)N[C@@H](CO)C(=O)N[C@@H](CO)C(=O)NCC(=O)N[C@@H](C)C(=O)N1CCC[C@H]1C(=O)N1CCC[C@H]1C(=O)N1CCC[C@H]1C(=O)N[C@@H](CO)C(N)=O)C(C)C [Compound 12] | 77% | 14.7 h | 8 h | 16.8 h | 98% | > 3000 pM | 9 pM | 9 pM
3 | CC[C@H](C)[C@H](NC(=O)[C@H](CCCCN)NC(=O)[C@H](CCC(=O)O)NC(=O)[C@H](CC(C)C)NC(=O)[C@H](CCC(=O)O)NC(=O)[C@@H](NC(=O)[C@H](CO)NC(=O)[C@H](Cc1ccc(O)cc1)NC(=O)[C@H](CC(=O)O)NC(=O)[C@H](CO)NC(=O)[C@@H](NC(=O)[C@H](Cc1ccccc1)NC(=O)[C@@H](NC(=O)CNC(=O)[C@H](CCC(=O)O)NC(=O)C(C)(C)NC(=O)[C@@H](N)Cc1ccc(O)cc1)[C@@H](C)O)[C@@H](C)CC)[C@@H](C)CC)C(=O)N[C@@H](C)C(=O)N[C@@H](CCC(N)=O)C(=O)N[C@@H](CCCNC(=N)N)C(=O)N[C@@H](C)C(=O)N[C@@H](Cc1ccccc1)C(=O)N[C@H](C(=O)N[C@@H](CCC(=O)O)C(=O)N[C@@H](Cc1c[nH]c2ccccc12)C(=O)N[C@@H](CC(C)C)C(=O)N[C@@H](CC(C)C)C(=O)N[C@@H](C)C(=O)N[C@@H](CCC(N)=O)C(=O)NCC(=O)N1CCC[C@H]1C(=O)N[C@@H](CO)C(=O)N[C@@H](CO)C(=O)NCC(=O)N[C@@H](C)C(=O)N1CCC[C@H]1C(=O)N1CCC[C@H]1C(=O)N1CCC[C@H]1C(=O)N[C@@H](CO)C(=O)N[C@@H](CCCCNC(=O)COCCOCCNC(=O)COCCOCCNC(=O)CC[C@H](NC(=O)CCCCCCCCCCCCCCCCCCC(=O)O)C(=O)O)C(N)=O)C(C)C [Compound 13] (H-Y[Aib]EGTFISDYSIELEKIAQRAFVEWLLAQGPSSGAPPPSK([AEEA-AEEA-γGlu-C20 diacid])-NH2) | 75% | 14.4 h | 8 h | 13.7 h | – | > 10000 pM | 8 pM | 14 pM
4 | CC[C@H](C)[C@H](NC(=O)[C@H](CO)NC(=O)[C@H](Cc1ccc(O)cc1)NC(=O)[C@H](CC(=O)O)NC(=O)[C@H](CO)NC(=O)[C@@H](NC(=O)[C@H](Cc1ccccc1)NC(=O)[C@@H](NC(=O)CNC(=O)[C@H](CCC(=O)O)NC(=O)C(C)(C)NC(=O)[C@@H](N)Cc1ccc(O)cc1)[C@@H](C)O)[C@@H](C)CC)C(=O)N[C@@H](CCC(=O)O)C(=O)N[C@@H](CC(C)C)C(=O)N[C@@H](CC(=O)O)C(=O)N[C@@H](CCCCN)C(=O)N[C@@H](CCCCNC(=O)COCCOCCNC(=O)COCCOCCNC(=O)CC[C@H](NC(=O)CCCCCCCCCCCCCCCCCCC(=O)O)C(=O)O)C(=O)N[C@@H](C)C(=O)N[C@@H](C)C(=O)N[C@@H](CCC(N)=O)C(=O)N[C@@H](CC(=O)O)C(=O)N[C@@H](Cc1ccccc1)C(=O)N[C@H](C(=O)N[C@@H](CC(N)=O)C(=O)N[C@@H](Cc1c[nH]c2ccccc12)C(=O)N[C@@H](CC(C)C)C(=O)N[C@@H](CC(C)C)C(=O)N[C@@H](C)C(=O)NCC(=O)N1CCC[C@H]1C(=O)N[C@@H](CO)C(=O)N[C@@H](CO)C(=O)NCC(=O)N[C@@H](C)C(=O)N1CCC[C@H]1C(=O)N1CCC[C@H]1C(=O)N1CCC[C@H]1C(=O)N[C@@H](CO)C(N)=O)C(C)C [Compound 15] (H-Y[Aib]EGTFISDYSIELDKK([AEEA-AEEA-γGlu-C20 diacid])AAQDFVNWLLAGPSSGAPPPS-NH2) | 87% | 19.2 h | 8 h | 16.7 h | – | > 100000 pM | 24 pM | 12 pM
5 | CC[C@H](C)[C@H](NC(=O)[C@H](Cc1ccccc1)NC(=O)[C@H](CC(=O)O)NC(=O)[C@H](CCC(N)=O)NC(=O)[C@H](C)NC(=O)[C@H](C)NC(=O)[C@H](CCCCNC(=O)COCCOCCNC(=O)COCCOCCNC(=O)CC[C@H](NC(=O)CCCCCCCCCCCCCCCCCCC(=O)O)C(=O)O)NC(=O)[C@H](CCCCN)NC(=O)[C@H](CC(=O)O)NC(=O)[C@H](CC(C)C)NC(=O)[C@H](CCC(=O)O)NC(=O)[C@@H](NC(=O)[C@H](CO)NC(=O)[C@H](Cc1ccc(O)cc1)NC(=O)[C@H](CC(=O)O)NC(=O)[C@H](CO)NC(=O)[C@@H](NC(=O)[C@H](Cc1ccccc1)NC(=O)[C@@H](NC(=O)CNC(=O)[C@H](CCC(=O)O)NC(=O)C(C)(C)NC(=O)[C@@H](N)Cc1ccc(O)cc1)[C@@H](C)O)[C@@H](C)CC)[C@@H](C)CC)C(=O)N[C@@H](CC(N)=O)C(=O)N[C@@H](Cc1c[nH]c2ccccc12)C(=O)N[C@@H](CC(C)C)C(=O)N[C@@H](CC(C)C)C(=O)N[C@@H](C)C(=O)N[C@@H](CCC(N)=O)C(=O)NCC(=O)N1CCC[C@H]1C(=O)N[C@@H](CO)C(=O)N[C@@H](CO)C(=O)NCC(=O)N[C@@H](C)C(=O)N1CCC[C@H]1C(=O)N1CCC[C@H]1C(=O)N1CCC[C@H]1C(=O)N[C@@H](CO)C(N)=O [Compound 39] (H-Y[Aib]EGTFISDYSIELDKK([AEEA-AEEA-γGlu-C20 diacid])AAQDFINWLLAQGPSSGAPPPS-NH2) | – | – | – | – | – | > 100000 pM | 1 pM | 7 pM
6 | CC[C@H](C)[C@H](NC(=O)[C@H](Cc1ccccc1)NC(=O)[C@H](C)NC(=O)[C@H](CCC(N)=O)NC(=O)[C@H](C)NC(=O)[C@H](C)NC(=O)[C@H](CCCCNC(=O)COCCOCCNC(=O)COCCOCCNC(=O)CC[C@H](NC(=O)CCCCCCCCCCCCCCCCCCC(=O)O)C(=O)O)NC(=O)[C@H](CCCCN)NC(=O)[C@H](CC(=O)O)NC(=O)[C@H](CC(C)C)NC(=O)[C@H](CCC(=O)O)NC(=O)[C@@H](NC(=O)[C@H](CO)NC(=O)[C@H](Cc1ccc(O)cc1)NC(=O)[C@H](CC(=O)O)NC(=O)[C@H](CO)NC(=O)[C@@H](NC(=O)[C@H](Cc1ccccc1)NC(=O)[C@@H](NC(=O)CNC(=O)[C@H](CCC(=O)O)NC(=O)C(C)(C)NC(=O)[C@@H](N)Cc1ccc(O)cc1)[C@@H](C)O)[C@@H](C)CC)[C@@H](C)CC)C(=O)N[C@@H](CCC(=O)O)C(=O)N[C@@H](Cc1c[nH]c2ccccc12)C(=O)N[C@@H](CC(C)C)C(=O)N[C@@H](CC(C)C)C(=O)N[C@@H](C)C(=O)N[C@@H](CCC(N)=O)C(=O)NCC(=O)N1CCC[C@H]1C(=O)N[C@@H](CO)C(=O)N[C@@H](CO)C(=O)NCC(=O)N[C@@H](C)C(=O)N1CCC[C@H]1C(=O)N1CCC[C@H]1C(=O)N1CCC[C@H]1C(=O)N[C@@H](CO)C(N)=O [Compound 40] | – | – | – | – | – | > 10000 pM | 7 pM | 10 pM
